# Measured values as given in publication PMC9863297, “Intermolecular Interactions of Edaravone in Aqueous Solutions of Ethaline and Glyceline Inferred from Experiments and Quantum Chemistry Computations” (Molecules, 2023).
# Like-named read-outs stand apart in the source and are kept apart here.
# Experiment: Edaravone solubility, slurry/shake-flask method with spectrophotometric determination at 243 nm
# Assay type: physicochemical
# Conditions: for solubility at 24 h: thermodynamic from solid, read-out: cE solubility concentration; for mole fraction solubility advantage of 1:2 composition over unimolar composition: DES involving ethylene glycol; for volume of saturated solution containing the recommended 60 mg: solubility at 298.15 K
# Description: The first step in obtaining a calibration curve was the preparation of a stock solution of edaravone with a concentration of 2.3 mg/mL. This initial solution was successfully diluted in 10 mL volumetric flasks with methanol and the obtained solutions with decreasing concentrations were measured spectrophotometrically. […] Three separate curves were obtained, and the final curve resulted from averaging. […] The limits of detection (LOD) and quantification (LOQ) were calculated as 5.899∙10^−4 mg/mL and 1.770∙10^−3 mg/mL, respectively.
# All of the studied deep eutectic solvents included choline chloride, while the second constituent was either glycerol or ethylene glycol. In order to prepare a DES formulation, choline chloride was mixed with the second compound in different molar ratios in sealed test tubes and placed in a water bath at 363.15 K until the formation of a uniform solution. The obtained DES were either used in their neat form or water was added to them in different proportions in order to form binary systems.
# During the next stage, edaravone was added in excess amounts to the test tubes containing both neat DES and binary mixtures, which enabled us to obtain its saturated solutions. Samples prepared in such a manner were placed in an Orbital Shaker Incubator ES-20/60 from Biosan (Riga, Latvia) and incubated for 24 h at different temperatures, namely 298.15 K, 303.15 K, 308.15 K and 313.15 K. The temperature adjustment accuracy was 0.1 K and its variability in a 24 h cycle was ±0.5 K. Apart from heating, all of the samples were mixed at 60 rev/min. The increased viscosity and density of DES systems required the samples to be centrifuged at 1000 rev/min for 5 min with the use of EBA 20 centrifuge from Hettich (Tuttlingen, Germany) enabling the undissolved precipitate to remain on the bottom of the test tubes. Next, the samples were filtered using a syringe equipped with a PTFE syringe filer with 0.22 µm pore size. In order to avoid precipitation, the test tubes, syringes and filters were initially heated at a temperature equal to the one of the handled samples. Finally, small amounts of the obtained filtrate were transferred to test tubes filled with methanol and the diluted samples were measured spectrophotometrically. Additionally, for the determination of the mole fractions of edaravone, the density of the samples was measured by weighing a fixed volume of the solution in 10 mL volumetric flasks.
# For determining the solubility of edaravone in the studied systems, the samples prepared, as described above, were measured spectrophotometrically using an A360 spectrophotometer from AOE Instruments (Shanghai, China). The spectra were recorded in the 190 nm to 500 nm wavelength range and 1 nm resolution. Methanol was used for the initial calibration of the spectrophotometer and for the dilution of the measured samples, which was conducted in order for the absorbance values to remain below 2.5. The absorbance values at 243 nm were taken into account and based on the calibration curve prepared earlier, the concentration of edaravone in the samples was determined, followed by its mole fractions. The values were averaged from three separate measurements.
compound,measurement,setting,value
"CC1=NN(c2ccccc2)C(=O)C1 [edaravone, 5-methyl-2-phenyl-4H-pyrazol-3-one]",solubility at 24 h,"40 °C, aqueous with cosolvent or surfactant or cyclodextrin, water + GLE (ChCl:GL 1:2), x*GLE = 0.6, 313.15 K",692 mg/mL
same,solubility at 24 h,"40 °C, aqueous with cosolvent or surfactant or cyclodextrin, water + GLE (ChCl:GL 1:2), x*GLE = 0.8, 313.15 K",602 mg/mL
same,solubility at 24 h,"40 °C, organic solvent or mixture, neat DES choline chloride + glycerol (GLE) 1:1 molar ratio, 313.15 K",398 mg/mL
same,solubility at 24 h,"40 °C, organic solvent or mixture, neat DES choline chloride + glycerol (GLE) 1:2 molar ratio (x*GLE = 1.0), 313.15 K",492 mg/mL
same,solubility at 24 h,"40 °C, organic solvent or mixture, neat DES choline chloride + glycerol (GLE) 1:4 molar ratio, 313.15 K",470 mg/mL
same,mole fraction solubility advantage of 1:2 composition over unimolar composition,298.15 K,53%
same,mole fraction solubility advantage of 1:2 composition over unimolar composition,313.15 K,21%
same,solubility at 24 h,"deep eutectic solvent + water binary mixture, 25 °C, aqueous with cosolvent or surfactant or cyclodextrin, water + ETA (ChCl:EG 1:2), x*ETA = 0.8, 298.15 K",363 mg/mL
same,solubility at 24 h,"deep eutectic solvent + water binary mixture, 30 °C, aqueous with cosolvent or surfactant or cyclodextrin, water + ETA (ChCl:EG 1:2), x*ETA = 0.6, 303.15 K",561 mg/mL
same,solubility at 24 h,"deep eutectic solvent + water binary mixture, 30 °C, aqueous with cosolvent or surfactant or cyclodextrin, water + ETA (ChCl:EG 1:2), x*ETA = 0.8, 303.15 K",452 mg/mL
same,solubility at 24 h,"deep eutectic solvent + water binary mixture, 35 °C, aqueous with cosolvent or surfactant or cyclodextrin, water + ETA (ChCl:EG 1:2), x*ETA = 0.5, 308.15 K",664 mg/mL
same,solubility at 24 h,"deep eutectic solvent + water binary mixture, 35 °C, aqueous with cosolvent or surfactant or cyclodextrin, water + ETA (ChCl:EG 1:2), x*ETA = 0.6, 308.15 K",670 mg/mL
same,solubility at 24 h,"deep eutectic solvent + water binary mixture, 35 °C, aqueous with cosolvent or surfactant or cyclodextrin, water + ETA (ChCl:EG 1:2), x*ETA = 0.8, 308.15 K",561 mg/mL
same,solubility at 24 h,"deep eutectic solvent + water binary mixture, 40 °C, aqueous with cosolvent or surfactant or cyclodextrin, water + ETA (ChCl:EG 1:2), x*ETA = 0.5, 313.15 K",744 mg/mL
same,solubility at 24 h,"deep eutectic solvent + water binary mixture, 40 °C, aqueous with cosolvent or surfactant or cyclodextrin, water + ETA (ChCl:EG 1:2), x*ETA = 0.6, 313.15 K",753 mg/mL
same,solubility at 24 h,"deep eutectic solvent + water binary mixture, 40 °C, aqueous with cosolvent or surfactant or cyclodextrin, water + ETA (ChCl:EG 1:2), x*ETA = 0.8, 313.15 K",655 mg/mL
same,solubility increase in optimal binary composition compared to neat DES,"glycerol-containing systems, x*DES = 0.6, average",28%
same,volume of saturated solution containing the recommended 60 mg,neat DES ETA,0.20 mL
same,volume of saturated solution containing the recommended 60 mg,neat DES GLE,0.32 mL
same,xE mole fraction solubility,"neat DES choline chloride + ethylene glycol (ETA) 1:1 molar ratio, 298.15 K",1031.93 (±62.91) mole fraction ∙10^4
same,xE mole fraction solubility,"neat DES choline chloride + ethylene glycol (ETA) 1:1 molar ratio, 303.15 K",1400.98 (±40.74) mole fraction ∙10^4
same,xE mole fraction solubility,"neat DES choline chloride + ethylene glycol (ETA) 1:1 molar ratio, 308.15 K",2089.82 (±49.36) mole fraction ∙10^4
same,xE mole fraction solubility,"neat DES choline chloride + ethylene glycol (ETA) 1:1 molar ratio, 313.15 K",2966.24 (±120.59) mole fraction ∙10^4
same,xE mole fraction solubility,"neat DES choline chloride + ethylene glycol (ETA) 1:2 molar ratio (x*ETA = 1.0), 298.15 K",1579.47 (±70.73) mole fraction ∙10^4
same,xE mole fraction solubility,"neat DES choline chloride + ethylene glycol (ETA) 1:2 molar ratio (x*ETA = 1.0), 303.15 K",2135.68 (±42.46) mole fraction ∙10^4
same,xE mole fraction solubility,"neat DES choline chloride + ethylene glycol (ETA) 1:2 molar ratio (x*ETA = 1.0), 308.15 K",2878.22 (±133.85) mole fraction ∙10^4
same,xE mole fraction solubility,"neat DES choline chloride + ethylene glycol (ETA) 1:2 molar ratio (x*ETA = 1.0), 313.15 K",3602.21 (±117.41) mole fraction ∙10^4
same,xE mole fraction solubility,"neat DES choline chloride + ethylene glycol (ETA) 1:4 molar ratio, 298.15 K",1306.68 (±55.75) mole fraction ∙10^4
same,xE mole fraction solubility,"neat DES choline chloride + ethylene glycol (ETA) 1:4 molar ratio, 303.15 K",1677.66 (±47.52) mole fraction ∙10^4
same,xE mole fraction solubility,"neat DES choline chloride + ethylene glycol (ETA) 1:4 molar ratio, 308.15 K",2434.99 (±114.12) mole fraction ∙10^4
same,xE mole fraction solubility,"neat DES choline chloride + ethylene glycol (ETA) 1:4 molar ratio, 313.15 K",3428.20 (±105.69) mole fraction ∙10^4
same,xE mole fraction solubility,"neat DES choline chloride + glycerol (GLE) 1:1 molar ratio, 298.15 K",786.83 (±3.34) mole fraction ∙10^4
same,xE mole fraction solubility,"neat DES choline chloride + glycerol (GLE) 1:1 molar ratio, 303.15 K",1173.65 (±39.25) mole fraction ∙10^4
same,xE mole fraction solubility,"neat DES choline chloride + glycerol (GLE) 1:1 molar ratio, 308.15 K",1615.31 (±40.69) mole fraction ∙10^4
same,xE mole fraction solubility,"neat DES choline chloride + glycerol (GLE) 1:1 molar ratio, 313.15 K",2429.30 (±72.71) mole fraction ∙10^4
same,xE mole fraction solubility,"neat DES choline chloride + glycerol (GLE) 1:2 molar ratio (x*GLE = 1.0), 298.15 K",1052.85 (±68.85) mole fraction ∙10^4
